Laboratory results: PMC12692346, “Imidazolinium-Based NHC–Metal Complexes Overcome Both Cancer Multidrug Resistance and Cisplatin Resistance In Vitro” (International Journal of Molecular Sciences, 2025)

Key:
Assay type in all cases: cell-based, human
[1] = tested on: Mes-Sa mCherry uterine sarcoma cell line; experiment: Triple coculture fluorescence cytotoxicity test, parental line; conditions: 144 h incubation, fluorescence readout
Experimental: (§1) All synthesized complexes and representatives of the respective ligands (Lb, Lc, SIPr, IPr) were tested in a triple coculture of uterine sarcoma cell lines, consisting of the parental Mes-Sa cell line, and its MDR derivatives Mes-Sa/B1 and Mes-Sa/Dx5, transfected or selected in doxorubicin to overexpress P-glycoprotein, respectively (Figure 2a–c, Table S2). Each cell line expresses a distinct fluorescent protein (mCherry, mOrange, and eGFP, respectively), and the total fluorescence of a well is proportional to the cell number, allowing the assessment of compound cytotoxicity.
(§2) In a triple coculture system, cell lines expressing different fluorescent proteins were seeded in the same well. Cell lines (Mes-Sa mCherry, Mes-Sa/B1 mOrange, Mes-Sa/Dx5 eGFP [25]) were admixed and seeded on 384-well plates at a density of 3 × 800 cells/well (1:1:1 ratio), resulting in an overall total of 2400 cells. The next day, serially diluted compounds were added to the wells. Liquid handling was managed by a Hamilton StarLet pipetting robot. After 144 h of incubation, the fluorescence of mCherry (ex/em: 585/610 nm), mOrange (ex/em: 545/567 nm) and eGFP (ex/em: 485/510 nm) was recorded with an EnSpire plate reader (PerkinElmer, Waltham, MA, USA).
(§3) pIC50 values derived from both co- and monoculture systems were determined by a custom program written in C# [25], then average and standard deviations were calculated and transformed to IC50 values. Every compound was tested in at least 3 independent experiments in triplicates.

Mes-Sa/B1 mOrange = experiment: Triple coculture fluorescence cytotoxicity test, ABCB1-transfected MDR line; conditions: for RR_B1 resistance ratio (IC50_MDR line / IC50_parental line) of Mes-Sa/B1: Mes-Sa/B1 vs Mes-Sa; for IC50: triple coculture, 144 h incubation, fluorescence readout
Experimental: as §1, §2, §3

Mes-Sa/Dx5 eGFP = experiment: Triple coculture fluorescence cytotoxicity test, doxorubicin-selected MDR line; conditions: for RR_Dx5 resistance ratio (IC50_MDR line / IC50_parental line) of Mes-Sa/Dx5: Mes-Sa/Dx5 vs Mes-Sa; for IC50: triple coculture, 144 h incubation, fluorescence readout
Experimental: as §1, §2, §3

| SMILES | IC50 [1] [µM] | RR_B1 resistance ratio (IC50_MDR line / IC50_parental line) of Mes-Sa/B1 (Mes-Sa/B1 mOrange) | IC50 (Mes-Sa/B1 mOrange) [µM] | RR_Dx5 resistance ratio (IC50_MDR line / IC50_parental line) of Mes-Sa/Dx5 (Mes-Sa/Dx5 eGFP) | IC50 (Mes-Sa/Dx5 eGFP) [µM] | IC50 ([1]; listed as 1c*) [µM] | RR_B1 resistance ratio (IC50_MDR line / IC50_parental line) of Mes-Sa/B1 (Mes-Sa/B1 mOrange; listed as 1c*) | IC50 (Mes-Sa/B1 mOrange; listed as 1c*) [µM] | RR_Dx5 resistance ratio (IC50_MDR line / IC50_parental line) of Mes-Sa/Dx5 (Mes-Sa/Dx5 eGFP; listed as 1c*) | IC50 (Mes-Sa/Dx5 eGFP; listed as 1c*) [µM] |
| --- | --- | --- | --- | --- | --- | --- | --- | --- | --- | --- |
| CC(C)c1cccc(C(C)C)c1N1[CH]([Cu][Cl])N(Cc2ccccc2)C[C@@H]1C(C)(C)C (some centres unmarked) [Compound 1a] | 0.52 | 4.7 | 2.45 | 1.3 | 0.69 |  |  |  |  |  |
| CC(C)c1cccc(C(C)C)c1N1[CH]([Cu][Cl])N([C@H](C)c2ccccc2)C[C@@H]1C(C)(C)C (some centres unmarked) [Compound 1c] | 0.8 | 6.9 | 5.5 | 1.5 | 1.18 | 0.74 | 5.4 | 3.97 | 2.9 | 2.18 |
| CC(C)c1cccc(C(C)C)c1N1[CH]([Cu][Cl])N([C@@H](C)C(C)(C)C)C[C@@H]1C(C)(C)C (some centres unmarked) [Compound 1f] | 3.04 | 2.7 | 8.13 | 1.4 | 4.19 |  |  |  |  |  |
| CC(C)c1cccc(C(C)C)c1N1[C](=[Ag][Cl])N([C@H](C)c2ccccc2)C[C@@H]1C(C)(C)C [Compound 2c] | 1.69 | 8.5 | 14.4 | 4.2 | 7.14 |  |  |  |  |  |
| CC(C)c1cccc(C(C)C)c1N1[C](=[Ag][Cl])N([C@@H](C)c2cccc3ccccc23)C[C@@H]1C(C)(C)C [Compound 2d] | 0.54 | 9.6 | 5.2 | 6.2 | 3.37 |  |  |  |  |  |
| CC(C)c1cccc(C(C)C)c1N1[C](=[Ag][Cl])N([C@@H](C)C(C)(C)C)C[C@@H]1C(C)(C)C [Compound 2f] | 0.74 | 5.1 | 3.77 | 1.8 | 1.37 |  |  |  |  |  |
| CC(C)c1cccc(C(C)C)c1N1[C](=[Au][Cl])N([C@H](C)c2ccccc2)C[C@@H]1C(C)(C)C [Compound 3c] | 18.6 | 2.1 | 39.8 | 2.1 | 39.6 |  |  |  |  |  |
| CC(C)c1cccc(C(C)C)c1N1[C](=[Au][Cl])N([C@H](C)c2ccc3ccccc3c2)C[C@@H]1C(C)(C)C [Compound 3e] | 7.47 | 2.6 | 19.1 | 2.3 | 16.9 |  |  |  |  |  |
| CC(C)c1cccc(C(C)C)c1N1[C](=[Au][Cl])N([C@@H](C)C(C)(C)C)C[C@@H]1C(C)(C)C [Compound 3f] | 11.4 | 1.6 | 18.6 | 1.2 | 13.8 |  |  |  |  |  |
| C=C[CH2][Pd]([Cl])=[C]1N([C@@H](C)c2ccccc2)C[C@H](C(C)(C)C)N1c1c(C(C)C)cccc1C(C)C [Compound 4b] | 5.19 | 1.8 | 9.33 | 2.4 | 12.2 |  |  |  |  |  |
| CC(C)c1cccc(C(C)C)c1-n1ccn(-c2c(C(C)C)cccc2C(C)C)[c]1=[Cu][Cl] [Compound 5b] | 1.01 | 2.0 | 2 | 1.8 | 1.83 |  |  |  |  |  |
| CC(C)c1cccc(C(C)C)c1-n1ccn(-c2c(C(C)C)cccc2C(C)C)[c]1=[Ag][Cl] [Compound 6b] | 1.82 | 2.4 | 4.37 | 2.1 | 3.89 |  |  |  |  |  |
